Results published in publication PMC8343220, “The selectivity of α‐adrenoceptor agonists for the human α1A, α1B, and α1D‐adrenoceptors” (Pharmacology Research & Perspectives, 2021).
Like-named read-outs stand apart in the source and are kept apart here.

Tests used:
[1] = test system: parental CHO cell line without any transfected receptors; test: ^3H‐cAMP accumulation, parent CHO cells without transfected receptors; type: cell-based, Chinese hamster
[2] = test system: parental CHO cell line without any transfected receptors; test: ERK1/2‐phosphorylation, parent CHO cells without transfected receptors; type: cell-based, Chinese hamster
[3] = test system: parental CHO cell line without any transfected receptors; test: Forskolin‐stimulated cAMP accumulation, parent CHO cells without transfected receptors; type: cell-based, Chinese hamster
[4] = test system: parental CHO cell line without any transfected receptors; test: Intracellular calcium mobilization, parent CHO cells without transfected receptors; type: cell-based, Chinese hamster; settings: for Emax: Cricetulus griseus, CHO, read-out: Intracellular calcium release % ionomycin
[5] = biological target: T1, human α1D‐adrenoceptor (full length) (Homo sapiens, UniProt P25100); test: ERK1/2‐phosphorylation (Surefire Alphascreen), CHO‐α1D cells; type: cell-based
T1 construct: human α1D‐adrenoceptor (full length) were used; expressed in transfected cells; host or cells: CHO-K1
T1 sequence (P25100 1-572): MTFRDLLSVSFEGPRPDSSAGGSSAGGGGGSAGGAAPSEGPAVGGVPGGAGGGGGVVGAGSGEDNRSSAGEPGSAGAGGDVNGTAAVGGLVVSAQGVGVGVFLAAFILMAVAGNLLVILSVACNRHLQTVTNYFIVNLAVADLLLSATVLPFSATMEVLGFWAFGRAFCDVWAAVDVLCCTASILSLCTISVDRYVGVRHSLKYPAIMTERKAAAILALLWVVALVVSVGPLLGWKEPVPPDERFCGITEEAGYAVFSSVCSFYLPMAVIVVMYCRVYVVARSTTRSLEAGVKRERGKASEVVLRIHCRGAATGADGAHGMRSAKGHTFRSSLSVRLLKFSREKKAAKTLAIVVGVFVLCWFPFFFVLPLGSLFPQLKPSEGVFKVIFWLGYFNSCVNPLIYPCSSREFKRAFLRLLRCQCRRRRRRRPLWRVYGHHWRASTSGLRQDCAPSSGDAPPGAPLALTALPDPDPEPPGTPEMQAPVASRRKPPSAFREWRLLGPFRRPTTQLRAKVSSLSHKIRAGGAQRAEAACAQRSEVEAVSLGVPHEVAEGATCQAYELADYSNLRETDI

human α1A‐adrenoceptor [6] = biological target: T2, human α1A‐adrenoceptor (Homo sapiens, UniProt P35348); test: ^3H‐cAMP accumulation in the presence of 10 μM forskolin, CHO‐α1A cells; type: cell-based; settings: for cAMP accumulation (in presence of forskolin) Fold increase: fold increase of the forskolin response
T2 construct: expressed in transfected cells; host or cells: CHO-K1
T2 sequence (P35348 1-466): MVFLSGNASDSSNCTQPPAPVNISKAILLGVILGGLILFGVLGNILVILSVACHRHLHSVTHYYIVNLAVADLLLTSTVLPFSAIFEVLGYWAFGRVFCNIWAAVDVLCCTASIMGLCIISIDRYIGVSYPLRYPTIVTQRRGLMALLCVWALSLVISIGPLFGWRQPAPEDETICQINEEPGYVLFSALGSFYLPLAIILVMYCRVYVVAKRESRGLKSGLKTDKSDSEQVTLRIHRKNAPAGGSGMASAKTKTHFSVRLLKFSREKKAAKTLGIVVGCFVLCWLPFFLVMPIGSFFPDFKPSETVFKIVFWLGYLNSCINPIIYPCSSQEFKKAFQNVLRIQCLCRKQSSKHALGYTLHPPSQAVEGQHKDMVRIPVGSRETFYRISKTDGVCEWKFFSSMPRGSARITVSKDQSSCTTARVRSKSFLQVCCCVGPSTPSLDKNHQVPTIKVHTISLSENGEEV

human α1B‐adrenoceptor [7] = biological target: T3, human α1B‐adrenoceptor (Homo sapiens, UniProt P35368); test: ^3H‐prazosin whole‐cell radioligand binding, CHO‐α1B cells
T3 construct: expressed in transfected cells; host or cells: CHO-K1
T3 sequence (P35368 1-520): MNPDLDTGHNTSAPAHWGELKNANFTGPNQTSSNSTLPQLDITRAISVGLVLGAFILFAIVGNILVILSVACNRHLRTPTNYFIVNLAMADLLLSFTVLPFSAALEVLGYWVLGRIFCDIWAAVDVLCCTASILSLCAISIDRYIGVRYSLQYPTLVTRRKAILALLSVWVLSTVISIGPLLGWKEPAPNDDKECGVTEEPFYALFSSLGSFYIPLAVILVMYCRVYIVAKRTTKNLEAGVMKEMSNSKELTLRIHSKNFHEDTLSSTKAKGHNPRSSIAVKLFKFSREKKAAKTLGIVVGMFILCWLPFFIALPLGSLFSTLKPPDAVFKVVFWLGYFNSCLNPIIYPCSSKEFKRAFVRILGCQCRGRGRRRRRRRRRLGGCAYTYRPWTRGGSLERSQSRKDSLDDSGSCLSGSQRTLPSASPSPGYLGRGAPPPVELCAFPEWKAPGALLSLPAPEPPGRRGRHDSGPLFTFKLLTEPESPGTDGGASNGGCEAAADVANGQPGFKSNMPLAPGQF

human α1A‐adrenoceptor [8] = biological target: T2, human α1A‐adrenoceptor; test: Intracellular free calcium mobilization, CHO‐α1A cells; type: cell-based
[9] = biological target: T1, human α1D‐adrenoceptor (full length); test: Intracellular free calcium mobilization, CHO‐α1D cells; type: cell-based
[10] = biological target: T1, human α1D‐adrenoceptor (full length); test: ^3H‐prazosin whole‐cell radioligand binding, CHO‐α1D cells
human α1B‐adrenoceptor [11] = biological target: T3, human α1B‐adrenoceptor; test: ERK1/2‐phosphorylation (Surefire Alphascreen), CHO‐α1B cells; type: cell-based
[12] = biological target: T1, human α1D‐adrenoceptor (full length); test: ^3H‐cAMP accumulation, CHO‐α1D cells; type: cell-based; settings: cAMP accumulation without forskolin
human α1A‐adrenoceptor [13] = biological target: T2, human α1A‐adrenoceptor; test: ERK1/2‐phosphorylation (Surefire Alphascreen), CHO‐α1A cells; type: cell-based
human α1A‐adrenoceptor [14] = biological target: T2, human α1A‐adrenoceptor; test: ^3H‐prazosin whole‐cell radioligand binding, CHO‐α1A cells
human α1B‐adrenoceptor [15] = biological target: T3, human α1B‐adrenoceptor; test: ^3H‐cAMP accumulation in the presence of 10 μM forskolin, CHO‐α1B cells; type: cell-based
[16] = biological target: T1, human α1D‐adrenoceptor (full length); test: ^3H‐cAMP accumulation in the presence of 10 μM forskolin, CHO‐α1D cells; type: cell-based; settings: CHO‐α1D cells; for cAMP (in presence of forskolin) Log EC50: log values given negative
human α1B‐adrenoceptor [17] = biological target: T3, human α1B‐adrenoceptor; test: ^3H‐cAMP accumulation, CHO‐α1B cells; type: cell-based
human α1B‐adrenoceptor [18] = biological target: T3, human α1B‐adrenoceptor; test: Intracellular free calcium mobilization, CHO‐α1B cells; type: cell-based
human α1A‐adrenoceptor [19] = biological target: T2, human α1A‐adrenoceptor; test: ^3H‐cAMP accumulation, CHO‐α1A cells; type: cell-based; settings: for cAMP accumulation % forskolin: % of 10 µM forskolin response
[20] = Intracellular calcium release Log EC50
[21] = ERK1/2‐phosphorylation Log EC50

Row | Compound | cAMP accumulation % forskolin [1] | Intracellular calcium release % ionomycin [4] | EC50 [5] [µM] | EC50 (human α1A‐adrenoceptor [6]) [µM] | cAMP accumulation (in presence of forskolin) Fold increase (human α1A‐adrenoceptor [6]; CHO‐α1A cells) [fold] | EC50 (human α1A‐adrenoceptor [8]) [µM] | Intracellular calcium release % ionomycin (human α1A‐adrenoceptor [8]) [%] | Log efficacy ratio KD /EC50 (human α1A‐adrenoceptor [8]) | Affinity selectivity ratio α1B vs α1D [10] [fold] | Kd [10] [µM] | cAMP Log EC50 [12] | EC50 (human α1A‐adrenoceptor [13]) [µM] | ERK1/2‐phosphorylation % PDBu (human α1A‐adrenoceptor [13]) [%] | Affinity selectivity ratio α1A vs α1B (human α1A‐adrenoceptor [14]) [fold] | Affinity selectivity ratio α1A vs α1D (human α1A‐adrenoceptor [14]) [fold] | Kd (human α1A‐adrenoceptor [14]) [µM] | cAMP accumulation (in presence of forskolin) % forskolin-stim cAMP [3] | cAMP accumulation (in presence of forskolin) Log EC50 [3] | cAMP (in presence of forskolin) Log EC50 [16] | EC50 (human α1A‐adrenoceptor [19]) [µM] | other results
1 | CCN(CC)C(=O)N[C@H]1C=C2c3cccc4[nH]cc(c34)C[C@H]2N(C)C1 [Lisuride] | No response | No response | – | – | – | – | – | – | – | – | – | – | – | – | – | – | – | – | – | – | ERK1/2‐phosphorylation response in parent CHO cells [2]: stimulated ERK1/2‐phosphorylation responses; Emax ([2]; Cricetulus griseus, CHO, read-out: ERK1/2-phosphorylation % PDBu): 41 ± 6.4%; cAMP accumulation (in presence of forskolin) % forskolin-stim cAMP at 10μM [3]: 85.2 ± 5.0%
2 | C=CCc1ccccc1OC(C)C1=NCCN1 (centres unmarked) [Allyphenyline] | No response | – | 6.92 | 0.00794 | 2.38 ± 0.08 | 0.00295 | 58.6 ± 3.0 | 1.74 | 5.5 | 1.41 | No response | 0.00158 | 79.3 ± 3.5 | 47.9 | 8.7 | 0.162 | No response | No response | No response | 0.0891 | ERK1/2‐phosphorylation % PDBu [5]: 29.1 ± 4.7%; Kd (human α1B‐adrenoceptor [7]): 7.76 µM; EC50 [9]: 0.316 µM; Intracellular calcium release % ionomycin [9]: 12.3 ± 1.4%; Log efficacy ratio KD /EC50 [9]: 0.65; EC50 (human α1B‐adrenoceptor [11]): 0.282 µM; ERK1/2‐phosphorylation % PDBu (human α1B‐adrenoceptor [11]): 65.3 ± 3.0%; EC50 (human α1B‐adrenoceptor [15]): 0.0513 µM; cAMP accumulation (in presence of forskolin) Fold increase (human α1B‐adrenoceptor [15]; CHO‐α1B cells, fold increase of the forskolin response): 1.87 ± 0.07 fold; Emax at 100 µM ([2]; Cricetulus griseus, CHO, read-out: ERK1/2-phosphorylation % PDBu at 100μM): 12.7 ± 3.1%; cAMP (in presence of forskolin) Fold increase ([16]; fold increase of the forskolin response): No response; EC50 (human α1B‐adrenoceptor [17]): 0.174 µM; cAMP accumulation % forskolin (human α1B‐adrenoceptor [17]; CHO‐α1B cells, % forskolin maximum response): 5.5 ± 0.9%; EC50 (human α1B‐adrenoceptor [18]): 0.0794 µM; Intracellular calcium release % ionomycin (human α1B‐adrenoceptor [18]): 39.9 ± 1.9%; Log efficacy ratio KD /EC50 (human α1B‐adrenoceptor [18]): 1.99; cAMP accumulation % forskolin (human α1A‐adrenoceptor [19]; CHO‐α1A cells): 82.4 ± 5.5%; Emax [4]: 5.9 ± 1%
3 | CN[C@@H](C)[C@H](O)c1ccccc1 [Ephedrine] | No response | – | – | 70.8 | 1.70 ± 0.10 | 3.16 | 43.1 ± 1.6 | 1.43 | >3.7 | 269 | – | 7.59 | 72.7 ± 6.5 | >11.7 | 3.2 | 85.1 | No response | No response | – | 117 | ERK1/2‐phosphorylation % PDBu at 100 µM [5]: 3.3 ± 2.1%; IC50 (human α1B‐adrenoceptor [7]): > 1000 µM; Intracellular calcium release % Ionomycin at 100 µM [9]: 2.6 ± 1.3%; ERK1/2-phosphorylation % PDBu [2]: No response; ERK1/2-phosphorylation Log EC50 [2]: No response; cAMP accumulation % forskolin (human α1A‐adrenoceptor [19]; CHO‐α1A cells): 7.8 ± 1.3%; Emax [4]: 5.3 ± 1.6%
4 | CC(Cc1ccc(O)cc1)NCC(O)c1cc(O)cc(O)c1 (centres unmarked) [Fenoterol] | No response | No response | 3.98 | – | – | – | – | – | – | – | No response | – | – | – | – | – | No response | – | No response | – | cAMP accumulation (in presence of forskolin) Log EC50 (human α1A‐adrenoceptor [6]; CHO‐α1A cells, 10 μM forskolin): No response; Kd (human α1B‐adrenoceptor [7]; Log KD α1B, ^3H‐prazosin whole cell binding): 123 µM; Kd (human α1B‐adrenoceptor [7]; Log KD, ^3H‐prazosin binding): 123 µM; EC50 (human α1A‐adrenoceptor [8]; [20]): 0.309 µM; Kd ([10]; 3H‐prazosin binding Log KD): 44.7 µM; Kd ([10]; Log KD α1D, ^3H‐prazosin whole cell binding): 44.7 µM; EC50 (human α1B‐adrenoceptor [11]; [21]): 2.75 µM; EC50 (human α1A‐adrenoceptor [13]; [21]): 2.04 µM; Kd (human α1A‐adrenoceptor [14]; Log KD α1A, ^3H‐prazosin whole cell binding): 5.13 µM; ERK1/2-phosphorylation % PDBu [2]: No response; EC50 (human α1B‐adrenoceptor [18]; [20]): 0.537 µM; cAMP accumulation Log EC50 (human α1A‐adrenoceptor [19]; CHO‐α1A cells, 5 h): No response
